Experimental data: the supplement of paper PMC10307832

compound: CC(C)C[C@H](NC(=O)[C@H](CCc1ccccc1)NC(=O)CN1CCOCC1)C(=O)N[C@@H](Cc1ccccc1)C(=O)N[C@@H](CC(C)C)C(=O)[C@@]1(C)CO1 [Carfilzomib] + O=C(CCCCCCC(=O)Nc1ccccc1)NO [Vorinostat] (partner 1 µM); assay: relative viability (nuclei count vs DMSO), 5 days (fraction); higher = more cells survive; details: first compound 0.001 µM
Summary of the method: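 Each reported value is a median over duplicate plates. It expresses relative viability: treated-well nuclei count divided by vehicle-well nuclei count. Lung cancer cell lines in 1536-well plates were dosed by pin tool a day after seeding, alone with one drug or with a fixed anchor-drug dose plus five library-drug doses (not always all listed) in √10 steps, and nuclei were counted after 5 days.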

| Cell Line | relative viability |
| --- | --- |
| 201T | 0.929 |
| A-427 | 0.874 |
| ABC-1 | 0.706 |
| BEN | 0.549 |
| CAL-12T | 0.722 |
| COR-L23 | 0.454 |
| COR-L 105 | 0.95 |
| ChaGo-K-1 | 0.718 |
| EKVX | 0.663 |
| EMC-BAC-2 | 0.434 |
| EPLC-272H | 0.518 |
| H3255 | 0.546 |
| HARA | 0.507 |
| HCC-15 | 0.927 |
| HCC-44 | 1.2 |
| HCC-78 | 0.433 |
| HCC-366 | 0.315 |

| Cell Line | relative viability |
| --- | --- |
| HCC-827 | 0.821 |
| HOP-62 | 0.559 |
| IA-LM | 0.921 |
| LC-2-ad | 0.811 |
| LCLC-97TM1 | 0.705 |
| LCLC-103H | 0.809 |
| LK-2 | 0.257 |
| LOU-NH91 | 1.03 |
| LU99A | 0.467 |
| LXF-289 | 0.747 |
| NCI-H23 | 0.506 |
| NCI-H322M | 0.796 |
| NCI-H441 | 0.777 |
| NCI-H522 | 0.888 |
| NCI-H1648 | 0.64 |
| NCI-H2342 | 0.731 |

same assay, conditions: first compound 0.003162 µM

| Cell Line | relative viability |
| --- | --- |
| 201T | 1 |
| A-427 | 0.859 |
| ABC-1 | 0.534 |
| BEN | 0.503 |
| CAL-12T | 0.794 |
| COR-L23 | 0.438 |
| COR-L 105 | 1 |
| ChaGo-K-1 | 0.802 |
| EKVX | 0.958 |
| EMC-BAC-2 | 0.587 |
| EPLC-272H | 0.417 |
| H3255 | 0.954 |
| HARA | 0.561 |
| HCC-15 | 0.821 |
| HCC-44 | 1.1 |
| HCC-78 | 0.467 |
| HCC-366 | 0.444 |

| Cell Line | relative viability |
| --- | --- |
| HCC-827 | 0.913 |
| HOP-62 | 0.632 |
| IA-LM | 0.889 |
| LC-2-ad | 0.755 |
| LCLC-97TM1 | 1.03 |
| LCLC-103H | 0.941 |
| LK-2 | 0.345 |
| LOU-NH91 | 1.03 |
| LU99A | 0.649 |
| LXF-289 | 0.795 |
| NCI-H23 | 0.656 |
| NCI-H322M | 0.898 |
| NCI-H441 | 0.683 |
| NCI-H522 | 1.01 |
| NCI-H1648 | 0.613 |
| NCI-H2342 | 0.675 |
| SW 900 | 0.469 |

same assay, conditions: first compound 0.01 µM

| Cell Line | relative viability |
| --- | --- |
| 201T | 0.985 |
| A-427 | 0.842 |
| ABC-1 | 0.35 |
| BEN | 0.552 |
| CAL-12T | 0.77 |
| COR-L23 | 0.212 |
| COR-L 105 | 0.805 |
| ChaGo-K-1 | 0.589 |
| EKVX | 0.783 |
| EMC-BAC-2 | 0.524 |
| EPLC-272H | 0.108 |
| H3255 | 0.929 |
| HARA | 0.501 |
| HCC-15 | 0.951 |
| HCC-44 | 1.13 |
| HCC-78 | 0.461 |
| HCC-366 | 0.313 |

| Cell Line | relative viability |
| --- | --- |
| HCC-827 | 0.943 |
| HOP-62 | 0.215 |
| IA-LM | 0.932 |
| LC-2-ad | 0.75 |
| LCLC-97TM1 | 0.346 |
| LCLC-103H | 0.772 |
| LK-2 | 0.177 |
| LOU-NH91 | 0.443 |
| LU99A | 0.404 |
| LXF-289 | 0.738 |
| NCI-H23 | 0.195 |
| NCI-H322M | 0.952 |
| NCI-H441 | 0.546 |
| NCI-H522 | 0.841 |
| NCI-H1648 | 0.954 |
| NCI-H2342 | 0.876 |
| SW 900 | 0.198 |

same assay, conditions: first compound 0.03162 µM

| Cell Line | relative viability |
| --- | --- |
| 201T | 0.93 |
| A-427 | 0.307 |
| ABC-1 | 0.274 |
| BEN | 0.598 |
| CAL-12T | 0.487 |
| COR-L23 | 0.0648 |
| COR-L 105 | 0.381 |
| ChaGo-K-1 | 0.235 |
| EKVX | 0.561 |
| EMC-BAC-2 | 0.247 |
| EPLC-272H | 0.055 |
| HARA | 0.436 |
| HCC-15 | 0.506 |
| HCC-44 | 1.17 |
| HCC-78 | 0.303 |
| HCC-366 | 0.0693 |
| HCC-827 | 0.673 |

| Cell Line | relative viability |
| --- | --- |
| HOP-62 | 0.0689 |
| IA-LM | 0.193 |
| LC-2-ad | 0.44 |
| LCLC-97TM1 | 0.0531 |
| LCLC-103H | 0.497 |
| LK-2 | 0.189 |
| LOU-NH91 | 0.302 |
| LU99A | 0.225 |
| LXF-289 | 0.0661 |
| NCI-H23 | 0.118 |
| NCI-H322M | 0.788 |
| NCI-H441 | 0.129 |
| NCI-H522 | 0.426 |
| NCI-H1648 | 0.28 |
| NCI-H2342 | 0.733 |
| SW 900 | 0.168 |

same assay, conditions: first compound 0.1 µM

| Cell Line | relative viability |
| --- | --- |
| 201T | 0.514 |
| A-427 | 0.15 |
| ABC-1 | 0.257 |
| BEN | 0.273 |
| CAL-12T | 0.121 |
| COR-L23 | 0.0718 |
| COR-L 105 | 0.283 |
| ChaGo-K-1 | 0.157 |
| EKVX | 0.231 |
| EMC-BAC-2 | 0.126 |
| EPLC-272H | 0.0448 |
| H3255 | 0.811 |
| HARA | 0.0635 |
| HCC-15 | 0.132 |
| HCC-44 | 0.604 |
| HCC-78 | 0.283 |
| HCC-366 | 0.0215 |
| HCC-827 | 0.189 |
| HOP-62 | 0.0634 |
| IA-LM | 0.0116 |
| LC-2-ad | 0.245 |
